Earlier results on two compounds are cited in patent US7025979B2, “Male contraceptive formulation comprising norethisterone” (Schering AG, priority 2000, dated 2006).

The structures appear in SMILES notation.

For data set [1] the following is noted: in higher doses; literature (Merrigiola et al, Bebb et al).
Data set [2] concerns spermatogenesis. Particulars: use of the progestin; literature (Merrigiola et al, Bebb et al).

For the compound `CC(=O)O[C@]1(C(C)=O)CC[C@H]2[C@@H]3C=C(Cl)C4=CC(=O)[C@@H]5C[C@@H]5[C@]4(C)[C@H]3CC[C@@]21C` [cyproterone acetate], the “red blood cell count” value in data set [1] was “significant decreases in red blood cell count”. For the same compound, the suppression of spermatogenesis result in data set [2] is given as “ineffective in the suppression of spermatogenesis”.

With `C#C[C@]1(O)CC[C@H]2[C@@H]3CCC4=CC(=O)CC[C@@H]4[C@H]3CC[C@@]21CC` [levonorgestrel], in data set [1], the “red blood cell count” value is reported as “significant decreases in red blood cell count”.
